Marks after values point to notes of the source that are not given here. Bridge positions count the residues as written; N and C are the ends. Square brackets hold non-standard residues; d marks the D form. Peptide text beside a SMILES is read from it.
Legend:
[1] = tested on: mouse adult neural stem cells; experiment: ATP-assay: proliferation (ATP levels) of neurosphere-derived cells; conditions: for Fold Induction ATP: vs vehicle
[2] = tested on: cAMP activation in mouse adult neural stem cells; experiment: cAMP detection (HitHunter EFC Cyclic AMP Chemiluminescence Assay); conditions: for Fold Induction cAMP: vs vehicle
Adult neural stem cells = experiment: Flow cytometry for early neuronal marker Doublecortin; conditions: Table 6; 100 nM; 4 days
[3] = Table 2, 100 nM (cAMP concentration)

| SMILES | ATP (nM ATP/well) ([1]; Table 2, 100 nM, 4 days) | cAMP (pmol/well) [2, 3] [pmol/well] | Fold Induction ATP ([1]; Table 2, 1000 nM, 4 days) | ATP (nM ATP/well) ([1]; Table 2, 1000 nM, 4 days) | other results |
| --- | --- | --- | --- | --- | --- |
| COc1ccc(C2CNC(=O)C2)cc1OC1CCCC1 (stereo not shown) [Rolipram, rolipram] | – | – | – | – | fold induction at 0.1 µM ([1]; Mus musculus, Neural stem cell, 96 h, read-out: Fold Induction ATP): 1.1; ATP (nM ATP/well) ([1]; Table 1, 100 nM, 4 days in culture): 10.4 ± 0.4 nM ATP/well; proliferation of neural stem cells ([1]; cAMP activators, GPCR-independent): increase; fold induction at 0.1 µM ([2]; Mus musculus, Neural stem cell, 0.25 h, read-out: Fold Induction cAMP): 3.8; cAMP (pmol/well) ([2]; Table 1, 100 nM, after 15 minutes): 0.09 ± 0.03 pmol/well |
| CC(C)C[C@H](NC(=O)[C@@H]1CCCN1C(=O)[C@H](CO)NC(=O)[C@H](Cc1ccccc1)NC(=O)CNC(=O)[C@@H]1CCCN1C(=O)[C@@H]1CCCN1C(=O)[C@@H](N)CCCNC(=N)N)C(=O)O [[Des-Arg9, Leu8]-Bradykinin] | – | – | – | – | ATP (nM ATP/well) ([1]; Table 2, 10 nM, 4 days): 9.8 ± 0.4 nM ATP/well; Fold Induction ATP ([1]; Table 2, 10 nM, 4 days): 1.1* fold; cAMP (pmol/well) ([2]; Table 2, 1 nM (cAMP concentration)): 0.09 ± 0.02 pmol/well; Fold Induction cAMP ([2]; Table 2, 1 nM): 2.6* (1 nM) fold |
| CC(C)C[C@H](NC(=O)CN(C)C(=O)[C@H](Cc1ccccc1)NC(=O)[C@H](Cc1ccccc1)NC(=O)[C@H](CCC(N)=O)NC(=O)[C@H](CCC(N)=O)NC(=O)[C@@H]1CCCN1C(=O)[C@H](CCCCN)NC(=O)[C@@H]1CCCN1C(=O)[C@@H](N)CCCNC(=N)N)C(=O)N[C@@H](CCS(C)(=O)=O)C(N)=O [[Sar9, Met (0)11]-Substance P] | 39.7 ± 2.1 | 0.16 ± 0.05 | – | – | – |
| CSCC[C@H](NC(=O)[C@H](CC(C)C)NC(=O)[C@@H]1CCCN1C(=O)[C@H](Cc1ccc(O)cc1)NC(=O)[C@H](Cc1ccccc1)NC(=O)[C@@H]1CSSC[C@H](NC(=O)[C@@H]2CCCN2C(=O)[C@@H](N)CCCNC(=N)N)C(=O)N2CCC[C@H]2C(=O)N[C@@H](CCC(N)=O)C(=O)N1)C(N)=O [[Cys3,6, Tyr8, Pro9]-Substance P] (H-RPCPQCFYPLM-NH2; disulfide 3-6 (inferred); N-terminus and C-terminus assumed) | 11.2 ± 0.4 | 0.29 ± 10 | – | – | – |
| CC[C@H](C)[C@H](NC(=O)[C@H](C)NC(=O)[C@@H](NC(=O)[C@H](CCC(N)=O)NC(=O)[C@@H]1CCCN1C(=O)[C@H](Cc1ccccc1)NC(=O)[C@@H](NC(=O)[C@H](Cc1c[nH]cn1)NC(=O)[C@H](Cc1ccccc1)NC(=O)[C@H](CCCCN)NC(=O)[C@H](CC(N)=O)NC(=O)[C@H](Cc1ccccc1)NC(=O)[C@H](CC(=O)O)NC(=O)[C@H](CCC(N)=O)NC(=O)[C@@H](NC(=O)[C@H](Cc1ccc(O)cc1)NC(=O)[C@@H](NC(=O)CNC(=O)[C@H](CC(C)C)NC(=O)[C@H](CCSC)NC(=O)[C@@H]1CSSC[C@H](N)C(=O)NCC(=O)N[C@@H](CC(N)=O)C(=O)N[C@@H](CC(C)C)C(=O)N[C@@H](CO)C(=O)N[C@@H]([C@@H](C)O)C(=O)N1)[C@@H](C)O)[C@@H](C)O)[C@@H](C)O)[C@@H](C)O)C(=O)NCC(=O)N[C@H](C(=O)NCC(=O)N[C@@H](C)C(=O)N1CCC[C@H]1C(N)=O)C(C)C [Calcitonin (human)] | 9.9 ± 1.6 | 0.35 ± 0.15 | – | – | – |
| CSCC[C@H](NC(=O)[C@H](CO)NC(=O)[C@H](Cc1ccc(O)cc1)NC(=O)[C@@H](N)CO)C(=O)N[C@@H](CCC(=O)O)C(=O)N[C@@H](Cc1cnc[nH]1)C(=O)N[C@@H](Cc1ccccc1)C(=O)N[C@@H](CCCNC(=N)N)C(=O)N[C@@H](Cc1c[nH]c2ccccc12)C(=O)NCC(=O)N[C@@H](CCCCN)C(=O)N1CCC[C@H]1C(=O)N[C@H](C(=O)NCC(=O)N[C@@H](CCCCN)C(=O)N[C@@H](CCCCN)C(=O)N[C@@H](CCCNC(=N)N)C(=O)N[C@@H](CCCNC(=N)N)C(=O)N1CCC[C@H]1C(=O)N[C@H](C(=O)N[C@@H](CCCCN)C(=O)N[C@H](C(=O)N[C@@H](Cc1ccc(O)cc1)C(=O)N1CCC[C@H]1C(=O)N[C@@H](CC(N)=O)C(=O)NCC(=O)N[C@@H](C)C(=O)N[C@@H](CCC(=O)O)C(=O)N[C@@H](CC(=O)O)C(=O)N[C@@H](CCC(=O)O)C(=O)N[C@@H](CO)C(=O)N[C@@H](C)C(=O)N[C@@H](CCC(=O)O)C(=O)N[C@@H](C)C(=O)N[C@@H](Cc1ccccc1)C(=O)N1CCC[C@H]1C(=O)N[C@@H](CC(C)C)C(=O)N[C@@H](CCC(=O)O)C(=O)N[C@@H](Cc1ccccc1)C(=O)O)C(C)C)C(C)C)C(C)C [ACTH (Human)] (H-SYSMEHFRWGKPVGKKRRPVKVYPNGAEDESAEAFPLEF-OH) | – | – | 1.2* fold | – | Fold Induction cAMP ([2]; Table 2, 100 nM): 1.8** (100 nM) fold |
| CSCC[C@H](NC(=O)[C@H](CO)NC(=O)[C@H](Cc1ccc(O)cc1)NC(=O)[C@@H](N)CO)C(=O)N[C@@H](CCC(=O)O)C(=O)N[C@@H](Cc1c[nH]cn1)C(=O)N[C@@H](Cc1ccccc1)C(=O)N[C@@H](CCCNC(=N)N)C(=O)N[C@@H](Cc1c[nH]c2ccccc12)C(=O)NCC(=O)N[C@@H](CCCCN)C(=O)N1CCC[C@H]1C(=O)N[C@H](C(=O)NCC(=O)N[C@@H](CCCCN)C(=O)N[C@@H](CCCCN)C(=O)N[C@@H](CCCNC(=N)N)C(=O)N[C@@H](CCCNC(=N)N)C(=O)N1CCC[C@H]1C(=O)N[C@H](C(=O)N[C@@H](CCCCN)C(=O)N[C@H](C(=O)N[C@@H](Cc1ccc(O)cc1)C(=O)N1CCC[C@H]1C(=O)N[C@@H](CC(N)=O)C(=O)NCC(=O)N[C@@H](C)C(=O)N[C@@H](CCC(=O)O)C(=O)N[C@@H](CC(=O)O)C(=O)N[C@@H](CCC(=O)O)C(=O)N[C@@H](CO)C(=O)N[C@@H](C)C(=O)N[C@@H](CCC(=O)O)C(=O)N[C@@H](C)C(=O)N[C@@H](Cc1ccccc1)C(=O)N1CCC[C@H]1C(=O)N[C@@H](CC(C)C)C(=O)N[C@@H](CCC(=O)O)C(=O)N[C@@H](Cc1ccccc1)C(=O)O)C(C)C)C(C)C)C(C)C [ACTH (Human)] (H-SYSMEHFRWGKPVGKKRRPVKVYPNGAEDESAEAFPLEF-OH; N-terminus and C-terminus assumed) | – | 0.11 ± 0.02 | – | 15.7 ± 1.3 | – |
| CC[C@H](C)[C@H](NC(=O)[C@H](Cc1ccccc1)NC(=O)[C@H](CCC(=O)O)NC(=O)[C@H](CCCCN)NC(=O)[C@H](C)NC(=O)[C@H](C)NC(=O)[C@H](CCC(N)=O)NC(=O)CNC(=O)[C@H](CCC(=O)O)NC(=O)[C@H](CC(C)C)NC(=O)[C@H](Cc1ccc(O)cc1)NC(=O)[C@H](CO)NC(=O)[C@H](CO)NC(=O)[C@@H](NC(=O)[C@H](CC(=O)O)NC(=O)[C@H](CO)NC(=O)[C@@H](NC(=O)[C@H](Cc1ccccc1)NC(=O)[C@@H](NC(=O)CNC(=O)[C@H](CCC(=O)O)NC(=O)[C@H](C)NC(=O)[C@@H](N)Cc1c[nH]cn1)[C@@H](C)O)[C@@H](C)O)C(C)C)C(=O)N[C@@H](C)C(=O)N[C@@H](Cc1c[nH]c2ccccc12)C(=O)N[C@@H](CC(C)C)C(=O)N[C@H](C(=O)N[C@@H](CCCCN)C(=O)NCC(=O)N[C@@H](CCCNC(=N)N)C(=O)NCC(=O)O)C(C)C [Glucagon-Like Peptide-1 (7-37) (Human)] | – | 0.08 ± 0.01 | 1.3** fold | 18.3 ± 1.4 | Fold Induction cAMP ([2]; Table 2, 100 nM): 1.4* (100 nM) fold |
| CCCCC#Cc1nc(N)c2ncn([C@@H]3O[C@H](C(=O)NCC)[C@@H](O)[C@H]3O)c2n1 [HE-NECA] | – | – | 1.8** fold | 8.2 ± 1.1 | cAMP (pmol/well) ([2]; Table 2, 10 nM (cAMP concentration)): 3.32 ± 0.28 pmol/well; Fold Induction cAMP ([2]; Table 2, 10 nM): 1.8*** (10 nM) fold |
| C[C@H](NC(=O)[C@@H](Cc1c[nH]c2ccccc12)NC(=O)[C@@H](N)Cc1c[nH]cn1)C(=O)N[C@@H](Cc1c[nH]c2ccccc12)C(=O)N[C@H](Cc1ccccc1)C(=O)N[C@@H](CCCCN)C(N)=O [(D-Trp7.Ala8.D-Phe10)-α-Melanocyte stimulating hormone F: 6-11/GHRP] (H-H[dW]AW[dF]K-NH2; N-terminus and C-terminus assumed) | – | – | – | – | % Doublecortin-positive cells (Adult neural stem cells): 5.3% |

Source: US6969702B2, “Compounds and methods for increasing neurogenesis” (priority 2002, dated 2005)
